From ChEMBL document CHEMBL1914419, “Discovery of aryloxy tetramethylcyclobutanes as novel androgen receptor antagonists” (J Med Chem, 2011)

Experiment: Intrinsic clearance in human liver microsomes
Type: ADME, Microsome

In the case of Cc1nnc(C(=O)N[C@H]2C(C)(C)[C@H](Oc3ccc(C#N)c(Cl)c3)C2(C)C)o1, the microsomal CLint is reported as 29 µL/min/mg.
CC(=O)N[C@H]1C(C)(C)[C@H](Oc2ccc(C#N)c(C(F)(F)F)c2)C1(C)C gave a microsomal CLint of 11 µL/min/mg.
With CC(=O)N[C@H]1C(C)(C)[C@H](Oc2ccc(C#N)c(C#N)c2)C1(C)C the microsomal CLint was under 7 µL/min/mg.
Compound COCCn1ccc(C(=O)N[C@H]2C(C)(C)[C@H](Oc3ccc(C#N)c(Cl)c3)C2(C)C)n1 has a microsomal CLint of 57 µL/min/mg.
For Cc1nc(O[C@H]2C(C)(C)[C@H](NC(=O)c3cnc4ncccn34)C2(C)C)ccc1C#N, the microsomal CLint was under 8 µL/min/mg.
CC1(C)[C@H](NC(=O)c2cnn(CCO)c2)C(C)(C)[C@H]1Oc1ccc(C#N)c(Cl)c1 gave a microsomal CLint of 11 µL/min/mg.
With CC1(C)[C@H](NC(=O)c2ccn(CCC#N)n2)C(C)(C)[C@H]1Oc1ccc(C#N)c(Cl)c1 the microsomal CLint was 25 µL/min/mg.
Cc1nc2ncccn2c1C(=O)N[C@H]1C(C)(C)[C@H](Oc2ccc(C#N)c(Cl)c2)C1(C)C gave a microsomal CLint of 19 µL/min/mg.
CC1(C)[C@H](NC(=O)c2cnccn2)C(C)(C)[C@H]1Oc1ccc(C#N)c(Cl)c1 showed a microsomal CLint of 9.8 µL/min/mg.
Compound Cc1cc(C(=O)N[C@H]2C(C)(C)[C@H](Oc3ccc(C#N)c(Cl)c3)C2(C)C)nn1C has a microsomal CLint of 40 µL/min/mg.
In the case of CC(=O)N[C@H]1C(C)(C)[C@H](Oc2ccc(C#N)c(Cl)c2)C1(C)C, the microsomal CLint is reported as under 8 µL/min/mg.
CC(=O)N[C@H]1C(C)(C)[C@H](Oc2ccc(C#N)c(C)c2)C1(C)C gave a microsomal CLint of under 7 µL/min/mg.
In the case of CC1(C)[C@H](NC(=O)c2cnc3ncccn23)C(C)(C)[C@H]1Oc1ccc(C#N)c(Cl)c1, the microsomal CLint is reported as under 10 µL/min/mg.
With CC(=O)N[C@H]1C(C)(C)[C@H](Oc2ccc(C#N)cc2Cl)C1(C)C the microsomal CLint was 17.5 µL/min/mg.
For CC1(C)[C@H](NC(=O)c2cn[nH]c2)C(C)(C)[C@H]1Oc1ccc(C#N)c(Cl)c1, the microsomal CLint was under 8 µL/min/mg.
CN(C)C(=O)Cn1ccc(C(=O)N[C@H]2C(C)(C)[C@H](Oc3ccc(C#N)c(Cl)c3)C2(C)C)n1 showed a microsomal CLint of 15 µL/min/mg.
Work on CC1(C)[C@H](NC(=O)c2ccn(CCO)n2)C(C)(C)[C@H]1Oc1ccc(C#N)c(Cl)c1 yielded a microsomal CLint of under 12 µL/min/mg.
In the case of Cn1cc(C(=O)N[C@H]2C(C)(C)[C@H](Oc3ccc(C#N)c(Cl)c3)C2(C)C)cn1, the microsomal CLint is reported as 9 µL/min/mg.
